The values that follow come from patent US11986471B2, “Compounds and methods of use” (Tango Therapeutics, Inc., priority 2018, dated 2024).

Molecules are shown by their SMILES.

In one assay the test system is HAP1 MTAP-intact. Kind of assay: SDMA in-cell western assay, HAP1 MTAP-intact cell line. The format is cell-based. As to conditions: Homo sapiens. An outline of the steps:
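Cells from two matched HAP1 lines, MTAP-null and MTAP-expressing at endogenous levels, are treated with compound. SDMA is then quantified by in-cell western and an IC50 is calculated for each line.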

For assay [1], the target named is T1, PRMT5 (Homo sapiens, UniProt O14744).
T1 construct: purchased Viva (custom protein)
The experiment in a line: PRMT5 IC50 assay with no cofactor. The format is biochemical. The procedure, abridged: (§1)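 IC50 against PRMT5 determined with SAM as cofactor, with no cofactor, and with MTA as cofactor. Ki derived as IC50/1.5 for the SAM assay and IC50/13.5 for the MTA assay; SAM Ki to MTA Ki ratio also reported.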

The next assay deals with HAP1 MTAP-deleted. The experiment in a line: SDMA in-cell western assay, HAP1 MTAP-deleted cell line. The format is cell-based. Particulars: for IC50: Homo sapiens, HAP1 MTAP-deleted cell line; for MTAP Intact/Deleted Ratio: IC50 ratio HAP1 MTAP-intact / HAP1 MTAP-deleted. An outline of the steps:
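MTAP-null HAP1 cells, the deleted member of an isogenic pair with endogenously MTAP-expressing HAP1, are treated with compound. SDMA is then quantified by in-cell western and an IC50 is calculated.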

Assay [2] has as its target T1, PRMT5. Kind of assay: PRMT5 IC50 assay in the presence of MTA as cofactor. In kind it is biochemical. As to conditions: for IC50: PRMT5, MTA as cofactor. An outline of the steps: as §1
Assay [3] concerns the target T1, PRMT5. The experiment in a line: PRMT5 IC50 assay in the presence of SAM as cofactor. The format is biochemical. An outline of the steps: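 Potency against PRMT5 is compared across cofactor states, where IC50 equals Ki×1.5 with SAM present and Ki×13.5 with MTA present.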
The mark [4] stands for this setting: ratio between Ki in the presence of SAM and Ki in the presence of MTA.
Where [5] appears, read: ratio between the Ki in the presence of SAM and the Ki in the presence of MTA.

T1 sequence (O14744 whole entry): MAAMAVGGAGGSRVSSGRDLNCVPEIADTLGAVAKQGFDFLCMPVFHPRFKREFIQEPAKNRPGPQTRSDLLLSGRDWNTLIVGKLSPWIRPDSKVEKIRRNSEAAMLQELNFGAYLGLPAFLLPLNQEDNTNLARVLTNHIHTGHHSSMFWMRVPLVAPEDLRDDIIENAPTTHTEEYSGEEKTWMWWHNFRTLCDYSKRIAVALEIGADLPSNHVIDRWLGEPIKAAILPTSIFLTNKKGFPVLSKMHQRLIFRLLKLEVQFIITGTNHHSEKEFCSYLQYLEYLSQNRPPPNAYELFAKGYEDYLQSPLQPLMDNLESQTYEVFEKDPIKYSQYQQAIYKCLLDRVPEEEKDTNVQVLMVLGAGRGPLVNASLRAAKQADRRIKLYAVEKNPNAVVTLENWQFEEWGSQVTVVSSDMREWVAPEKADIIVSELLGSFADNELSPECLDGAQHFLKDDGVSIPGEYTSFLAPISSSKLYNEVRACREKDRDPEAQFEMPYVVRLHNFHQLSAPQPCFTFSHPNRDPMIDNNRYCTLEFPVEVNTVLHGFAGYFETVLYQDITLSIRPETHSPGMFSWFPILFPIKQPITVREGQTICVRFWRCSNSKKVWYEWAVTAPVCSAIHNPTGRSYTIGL
T1 sequence (Q9BQA1 whole entry partner): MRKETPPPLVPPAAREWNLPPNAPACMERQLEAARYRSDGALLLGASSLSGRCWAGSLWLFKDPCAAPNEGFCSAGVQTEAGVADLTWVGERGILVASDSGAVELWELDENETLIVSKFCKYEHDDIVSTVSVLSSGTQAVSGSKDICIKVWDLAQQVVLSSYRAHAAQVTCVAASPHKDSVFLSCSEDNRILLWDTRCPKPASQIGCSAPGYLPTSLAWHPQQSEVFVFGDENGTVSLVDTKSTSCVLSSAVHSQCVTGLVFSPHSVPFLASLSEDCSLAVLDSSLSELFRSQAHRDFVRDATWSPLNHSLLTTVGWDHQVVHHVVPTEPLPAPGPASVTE

Usually IC50 stands for the concentration needed to halve the response being measured. For `O=C(NC[C@H](O)CN1CCc2c(ccc(OCc3cn[nH]c3)c2Cl)C1)c1ccnc(NC2CCC2)c1` [Compound 280, N-[(2S)-3-[5-chloro-6-(1H-pyrazol-4-ylmethoxy)-3,4-dihydro-1H-isoquinolin-2-yl]-2-hydroxy-propyl]-2-(cyclobutylamino)pyridine-4-carboxamide], the IC50 with HAP1 MTAP-intact is less than 1000 nM; at PRMT5 [1] (read-out: No Co-factor IC50), not below 5000 nM; with HAP1 MTAP-deleted, less than 1000 nM; at PRMT5 [2], 500 to 5000 nM; on PRMT5 [3], 50 to 500 nM. In the assay with HAP1 MTAP-deleted, the “MTAP Intact/Deleted Ratio” value was “C* (an IC50 ratio of less than 3 fold between the IC50 in the HAP1 MTAP-intact cell line and the HAP1 MTAP-deleted cell line)”.
Take `Cc1ncoc1COc1ccc2c(c1C)CCN(C[C@@H](O)CNC(=O)c1cc(NC3COC3)nc(N3CCN(C(=O)C(C)C)CC3)n1)C2` [Compound 421, N-[(2S)-2-hydroxy-3-{5-methyl-6-[(4-methyl-1,3-oxazol-5-yl)methoxy]-1,2,3,4-tetrahydroisoquinolin-2-yl}propyl]-2-[4-(2-methylpropanoyl)piperazin-1-yl]-6-[(oxetan-3-yl)amino]pyrimidine-4-carboxamide]: the IC50 in the assay on HAP1 MTAP-intact was not below 10000 nM; at PRMT5 [1] (read-out: No Co-factor IC50) it was not below 5000 nM; with HAP1 MTAP-deleted, 1000 to 10000 nM; at PRMT5 [2] it was 50 to 500 nM; at PRMT5 [3], 50 to 500 nM. Also, in the assay on HAP1 MTAP-deleted, the “MTAP Intact/Deleted Ratio” value was “B* (an IC50 ratio greater than or equal to 3 fold but lower than 10 fold between the IC50 in the HAP1 MTAP-intact cell line and the HAP1 MTAP-deleted cell line)”. In addition, at PRMT5 [2] (setting [4]), the “SAM/MTA Ratio” value is “A (a Ki ratio greater than or equal to 10 fold between the Ki in the presence of SAM and the Ki in the presence of MTA)”.
Take `Cn1nccc1COc1cc(F)c2c(c1Cl)CCN(C[C@@H](O)CNC(=O)c1ccnc(NC3CCC3)c1)C2` [Compound 282, N-[(2S)-3-[5-chloro-8-fluoro-6-[(2-methylpyrazol-3-yl)methoxy]-3,4-dihydro-1H-isoquinolin-2-yl]-2-hydroxy-propyl]-2-(cyclobutylamino)pyridine-4-carboxamide]: the IC50 was not below 10000 nM in the assay on HAP1 MTAP-intact; not below 5000 nM at PRMT5 [1] (read-out: No Co-factor IC50); not below 10000 nM in the assay with HAP1 MTAP-deleted; 500 to 5000 nM on PRMT5 [2]; 500 to 5000 nM on PRMT5 [3]. Besides, the “MTAP Intact/Deleted Ratio” value in the assay on HAP1 MTAP-deleted was “C* (an IC50 ratio of less than 3 fold between the IC50 in the HAP1 MTAP-intact cell line and the HAP1 MTAP-deleted cell line)”. Further, at PRMT5 [2] (setting [4]), the “SAM/MTA Ratio” value was “A (a Ki ratio greater than or equal to 10 fold between the Ki in the presence of SAM and the Ki in the presence of MTA)”.
Take `Cc1ncoc1COc1ccc2c(c1C)CCN(C[C@@H](O)CNC(=O)c1cc(NC3CCC3)nc(N3CCOCC3)c1)C2` [Compound 461, 2-(cyclobutylamino)-N-[(2S)-2-hydroxy-3-{5-methyl-6-[(4-methyl-1,3-oxazol-5-yl)methoxy]-1,2,3,4-tetrahydroisoquinolin-2-yl}propyl]-6-(morpholin-4-yl)pyridine-4-carboxamide]: the IC50 was not below 10000 nM in the assay on HAP1 MTAP-intact; not below 5000 nM against PRMT5 [1]; 1000 to 10000 nM in the assay on HAP1 MTAP-deleted; 50 to 500 nM on PRMT5 [2]; 50 to 500 nM at PRMT5 [3]. Further, in the assay on HAP1 MTAP-deleted, the “MTAP Intact/Deleted Ratio” value was “B* (an IC50 ratio greater than or equal to 3 fold but lower than 10 fold between the IC50 in the HAP1 MTAP-intact cell line and the HAP1 MTAP-deleted cell line)”.
Turning to `O=C(NC[C@H](O)CN1CCc2cc(OCc3cnco3)ccc2C1)c1ccnc(NC2CN(C(=O)C3CC3)C2)c1` [Compound 563, 2-[[1-(cyclopropanecarbonyl)azetidin-3-yl]amino]-N-[(2S)-2-hydroxy-3-[6-(oxazol-5-ylmethoxy)-3,4-dihydro-1H-isoquinolin-2-yl]propyl]pyridine-4-carboxamide], the IC50 was in the range of 1000 to 10000 nM in the assay on HAP1 MTAP-intact; 500 to 5000 nM against PRMT5 [1]; 1000 to 10000 nM in the assay on HAP1 MTAP-deleted; 50 to 500 nM at PRMT5 [2]; 50 to 500 nM on PRMT5 [3]. Also, the “MTAP Intact/Deleted Ratio” value with HAP1 MTAP-deleted was “C* (an IC50 ratio of less than 3 fold between the IC50 in the HAP1 MTAP-intact cell line and the HAP1 MTAP-deleted cell line)”. The “SAM/MTA Ratio” value on PRMT5 [2] (setting [5]) was “A (a Ki ratio greater than or equal to 10 fold between the Ki in the presence of SAM and the Ki in the presence of MTA)”.
`O=C(NC[C@H](O)CN1CCc2cc(OCc3cnco3)ccc2C1)c1ccnc(NC2CCN(C(=O)C3CCC3)CC2)c1` [Compound 433, 2-[[1-(cyclobutanecarbonyl)-4-piperidyl]amino]-N-[(2S)-2-hydroxy-3-[6-(oxazol-5-ylmethoxy)-3N-dihydro-1H-isoquinolin-2-yl]propyl]pyridine-4-carboxamide]: the IC50 with HAP1 MTAP-intact was 1000 to 10000 nM; at PRMT5 [1], 500 to 5000 nM; with HAP1 MTAP-deleted, less than 1000 nM; on PRMT5 [2], 50 to 500 nM; on PRMT5 [3] it was 50 to 500 nM. The “MTAP Intact/Deleted Ratio” value in the assay on HAP1 MTAP-deleted was “B* (an IC50 ratio greater than or equal to 3 fold but lower than 10 fold between the IC50 in the HAP1 MTAP-intact cell line and the HAP1 MTAP-deleted cell line)”. The “SAM/MTA Ratio” value on PRMT5 [2] (setting [5]) was “A (a Ki ratio greater than or equal to 10 fold between the Ki in the presence of SAM and the Ki in the presence of MTA)”.
As to `O=C(NC[C@H](O)CN1CCc2c(ccc(OCc3cnco3)c2Cl)C1)c1ccc(OC2CCN(Cc3ccncc3)CC2)cc1` [Compound 301, (S)—N-(3-(5-chloro-6-(oxazol-5-ylmethoxy)-3,4-dihydroisoquinolin-2(1H)-yl)-2-hydroxypropyl)-4-((1-(pyridin-4-ylmethyl)piperidin-4-yl)oxy)benzamide], the IC50 in the assay on HAP1 MTAP-intact was not below 10000 nM; at PRMT5 [1] (read-out: No Co-factor IC50), 500 to 5000 nM; in the assay on HAP1 MTAP-deleted, 1000 to 10000 nM; at PRMT5 [2], 50 to 500 nM; on PRMT5 [3], 50 to 500 nM. In the assay with HAP1 MTAP-deleted, the “MTAP Intact/Deleted Ratio” value is “C* (an IC50 ratio of less than 3 fold between the IC50 in the HAP1 MTAP-intact cell line and the HAP1 MTAP-deleted cell line)”. On PRMT5 [2] (setting [4]), the “SAM/MTA Ratio” value is “A (a Ki ratio greater than or equal to 10 fold between the Ki in the presence of SAM and the Ki in the presence of MTA)”.
Regarding `CC(=O)N1CC[C@H](Nc2cc(C(=O)NC[C@H](O)CN3CCc4cc(OCc5ocnc5C)ccc4C3)ncn2)C[C@H]1C` (mixture of isomers) [Compound 626, 6-{[(2RS,4SR)-1-acetyl-2-methylpiperidin-4-yl]amino}-N-[(2S)-2-hydroxy-3-{6-[(4-methyl-1,3-oxazol-5-yl)methoxy]-1,2,3,4-tetrahydroisoquinolin-2-yl}propyl]pyrimidine-4-carboxamide], the IC50 in the assay on HAP1 MTAP-intact was 1000 to 10000 nM; at PRMT5 [1] (read-out: No Co-factor IC50), 500 to 5000 nM; with HAP1 MTAP-deleted, less than 1000 nM; on PRMT5 [2] it was 50 to 500 nM; at PRMT5 [3], 50 to 500 nM. The “MTAP Intact/Deleted Ratio” value in the assay with HAP1 MTAP-deleted was “B* (an IC50 ratio greater than or equal to 3 fold but lower than 10 fold between the IC50 in the HAP1 MTAP-intact cell line and the HAP1 MTAP-deleted cell line)”. The “SAM/MTA Ratio” value on PRMT5 [2] (setting [4]) is “A (a Ki ratio greater than or equal to 10 fold between the Ki in the presence of SAM and the Ki in the presence of MTA)”.
As to `O=C(NC[C@H](O)CN1CCc2cc(OCc3cnco3)ccc2C1)c1cncc(NC2CCOCC2)c1` [Compound 383], the IC50 in the assay on HAP1 MTAP-intact is not below 10000 nM; on PRMT5 [1] (read-out: No Co-factor IC50), not below 5000 nM; in the assay with HAP1 MTAP-deleted it was not below 10000 nM; on PRMT5 [2] it was 500 to 5000 nM; on PRMT5 [3] it was 500 to 5000 nM. The “MTAP Intact/Deleted Ratio” value in the assay on HAP1 MTAP-deleted is “C* (an IC50 ratio of less than 3 fold between the IC50 in the HAP1 MTAP-intact cell line and the HAP1 MTAP-deleted cell line)”. Moreover, the “SAM/MTA Ratio” value on PRMT5 [2] (setting [4]) was “A (a Ki ratio greater than or equal to 10 fold between the Ki in the presence of SAM and the Ki in the presence of MTA)”.
As for `O=C(NC[C@H](O)CN1CCc2cc(OCc3cnco3)ccc2C1)c1cc(NC2CCC2)nc(N2CCOCC2)c1` [Compound 292, (S)-2-(cyclobutylamino)-N-(2-hydroxy-3-(6-(oxazol-5-ylmethoxy)-3,4-dihydroisoquinolin-2(1H)-yl)propyl)-6-morpholinoisonicotinamide], the IC50 with HAP1 MTAP-intact was not below 10000 nM; on PRMT5 [1] (read-out: No Co-factor IC50), 500 to 5000 nM; in the assay on HAP1 MTAP-deleted it was 1000 to 10000 nM; on PRMT5 [2] it was 50 to 500 nM; on PRMT5 [3] it was 50 to 500 nM. Further, in the assay with HAP1 MTAP-deleted, the “MTAP Intact/Deleted Ratio” value is “C* (an IC50 ratio of less than 3 fold between the IC50 in the HAP1 MTAP-intact cell line and the HAP1 MTAP-deleted cell line)”. The “SAM/MTA Ratio” value on PRMT5 [2] (setting [4]) was “A (a Ki ratio greater than or equal to 10 fold between the Ki in the presence of SAM and the Ki in the presence of MTA)”.
On to `CCN1CCN(c2cc(C(=O)NC[C@H](O)CN3CCc4c(ccc(OCc5ocnc5C)c4C)C3)cc(NC3CCC3)n2)CC1` [Compound 394, 2-(cyclobutylamino)-6-(4-ethylpiperazin-1-yl)-N-[(2S)-2-hydroxy-3-{5-methyl-6-[(4-methyl-1,3-oxazol-5-yl)methoxy]-1,2,3,4-tetrahydroisoquinolin-2-yl}propyl]pyridine-4-carboxamide], for which the IC50 was not below 10000 nM with HAP1 MTAP-intact; 500 to 5000 nM on PRMT5 [1] (read-out: No Co-factor IC50); less than 1000 nM with HAP1 MTAP-deleted; 50 to 500 nM on PRMT5 [2]; 50 to 500 nM on PRMT5 [3]. The “MTAP Intact/Deleted Ratio” value with HAP1 MTAP-deleted is “A* (an IC50 ratio greater than or equal to 10 fold between the IC50 in the HAP1 MTAP-intact cell line and the HAP1 MTAP-deleted cell line)”. The “SAM/MTA Ratio” value on PRMT5 [2] (setting [4]) was “A (a Ki ratio greater than or equal to 10 fold between the Ki in the presence of SAM and the Ki in the presence of MTA)”.
